Measured values as given in paper PMC4457528, “Identification of Novel Small Molecule Inhibitors of Oncogenic RET Kinase” (PLoS ONE, 2015).
Like-named read-outs stand apart in the source and are kept apart here.

Experiments:
Test in all cases: KinomeScan kinase panel, single concentration 10 µM
Type in all cases: binding
KinomeScan kinase panel [1] = molecular target: T1, KinomeScan kinase panel (Homo sapiens, UniProt P00519, M351T); conditions: 10 µM, read-out: score (%)
T1 construct: purchased DiscoveRx (KinomeScan)

KinomeScan kinase panel [2] = molecular target: T2, KinomeScan kinase panel (Homo sapiens, UniProt P08581); conditions: MET, 10 µM
T2 construct: purchased DiscoveRx (KinomeScan)

KinomeScan kinase panel [3] = molecular target: T3, KinomeScan kinase panel (Homo sapiens, UniProt P17612); conditions: PKAC-alpha, 10 µM; read-out: score (%)
T3 construct: purchased DiscoveRx (KinomeScan)

KinomeScan kinase panel [4] = molecular target: T4, KinomeScan kinase panel (Homo sapiens, UniProt P42336, E545K); conditions: PIK3CA(E545K), 10 µM; read-out: score (%)
T4 construct: purchased DiscoveRx (KinomeScan)

KinomeScan kinase panel [5] = molecular target: T5, KinomeScan kinase panel (Homo sapiens, UniProt P43405); conditions: 10 µM
T5 construct: purchased DiscoveRx (KinomeScan)

KinomeScan kinase panel [6] = molecular target: T6, KinomeScan kinase panel (Homo sapiens, UniProt P49137); conditions: MAPKAPK2, 10 µM; read-out: score (%)
T6 construct: purchased DiscoveRx (KinomeScan)

KinomeScan kinase panel [7] = molecular target: T7, KinomeScan kinase panel (Homo sapiens, UniProt P78368); conditions: CSNK1G2, 10 µM
T7 construct: purchased DiscoveRx (KinomeScan)

KinomeScan kinase panel [8] = molecular target: T8, KinomeScan kinase panel (Homo sapiens, UniProt Q00526); conditions: CDK3, 10 µM
T8 construct: purchased DiscoveRx (KinomeScan)

KinomeScan kinase panel [9] = molecular target: T9, KinomeScan kinase panel (Homo sapiens, UniProt Q13882); conditions: read-out: score (%)
T9 construct: purchased DiscoveRx (KinomeScan)

KinomeScan kinase panel [10] = molecular target: T10, KinomeScan kinase panel (Homo sapiens, UniProt Q8IWQ3); conditions: BRSK2, 10 µM; read-out: score (%)
T10 construct: purchased DiscoveRx (KinomeScan)
T10 sequence (Q8IWQ3 1-736): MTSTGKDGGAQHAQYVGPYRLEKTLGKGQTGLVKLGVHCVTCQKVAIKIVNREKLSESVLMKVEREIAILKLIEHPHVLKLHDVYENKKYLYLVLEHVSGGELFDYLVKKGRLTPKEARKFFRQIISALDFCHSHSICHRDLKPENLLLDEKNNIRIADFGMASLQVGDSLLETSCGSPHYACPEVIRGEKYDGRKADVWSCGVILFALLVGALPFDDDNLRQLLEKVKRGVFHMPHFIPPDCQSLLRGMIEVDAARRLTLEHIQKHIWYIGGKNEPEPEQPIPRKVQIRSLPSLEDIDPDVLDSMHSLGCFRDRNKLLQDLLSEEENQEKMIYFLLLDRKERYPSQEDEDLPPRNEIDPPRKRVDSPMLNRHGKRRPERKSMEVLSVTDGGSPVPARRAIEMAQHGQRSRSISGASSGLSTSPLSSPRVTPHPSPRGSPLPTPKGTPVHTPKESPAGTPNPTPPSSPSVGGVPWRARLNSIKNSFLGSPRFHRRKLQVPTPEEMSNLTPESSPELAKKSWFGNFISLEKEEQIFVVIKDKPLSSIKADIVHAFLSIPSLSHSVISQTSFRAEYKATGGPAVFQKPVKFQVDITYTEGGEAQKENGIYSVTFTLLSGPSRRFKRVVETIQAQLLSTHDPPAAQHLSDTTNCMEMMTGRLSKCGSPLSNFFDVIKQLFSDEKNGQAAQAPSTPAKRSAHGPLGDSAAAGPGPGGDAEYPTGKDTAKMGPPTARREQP

KinomeScan kinase panel [11] = molecular target: T11, KinomeScan kinase panel (Homo sapiens, UniProt Q96PY6); conditions: NEK1, 10 µM; read-out: score (%)
T11 construct: purchased DiscoveRx (KinomeScan)
T11 sequence (Q96PY6 1-1258): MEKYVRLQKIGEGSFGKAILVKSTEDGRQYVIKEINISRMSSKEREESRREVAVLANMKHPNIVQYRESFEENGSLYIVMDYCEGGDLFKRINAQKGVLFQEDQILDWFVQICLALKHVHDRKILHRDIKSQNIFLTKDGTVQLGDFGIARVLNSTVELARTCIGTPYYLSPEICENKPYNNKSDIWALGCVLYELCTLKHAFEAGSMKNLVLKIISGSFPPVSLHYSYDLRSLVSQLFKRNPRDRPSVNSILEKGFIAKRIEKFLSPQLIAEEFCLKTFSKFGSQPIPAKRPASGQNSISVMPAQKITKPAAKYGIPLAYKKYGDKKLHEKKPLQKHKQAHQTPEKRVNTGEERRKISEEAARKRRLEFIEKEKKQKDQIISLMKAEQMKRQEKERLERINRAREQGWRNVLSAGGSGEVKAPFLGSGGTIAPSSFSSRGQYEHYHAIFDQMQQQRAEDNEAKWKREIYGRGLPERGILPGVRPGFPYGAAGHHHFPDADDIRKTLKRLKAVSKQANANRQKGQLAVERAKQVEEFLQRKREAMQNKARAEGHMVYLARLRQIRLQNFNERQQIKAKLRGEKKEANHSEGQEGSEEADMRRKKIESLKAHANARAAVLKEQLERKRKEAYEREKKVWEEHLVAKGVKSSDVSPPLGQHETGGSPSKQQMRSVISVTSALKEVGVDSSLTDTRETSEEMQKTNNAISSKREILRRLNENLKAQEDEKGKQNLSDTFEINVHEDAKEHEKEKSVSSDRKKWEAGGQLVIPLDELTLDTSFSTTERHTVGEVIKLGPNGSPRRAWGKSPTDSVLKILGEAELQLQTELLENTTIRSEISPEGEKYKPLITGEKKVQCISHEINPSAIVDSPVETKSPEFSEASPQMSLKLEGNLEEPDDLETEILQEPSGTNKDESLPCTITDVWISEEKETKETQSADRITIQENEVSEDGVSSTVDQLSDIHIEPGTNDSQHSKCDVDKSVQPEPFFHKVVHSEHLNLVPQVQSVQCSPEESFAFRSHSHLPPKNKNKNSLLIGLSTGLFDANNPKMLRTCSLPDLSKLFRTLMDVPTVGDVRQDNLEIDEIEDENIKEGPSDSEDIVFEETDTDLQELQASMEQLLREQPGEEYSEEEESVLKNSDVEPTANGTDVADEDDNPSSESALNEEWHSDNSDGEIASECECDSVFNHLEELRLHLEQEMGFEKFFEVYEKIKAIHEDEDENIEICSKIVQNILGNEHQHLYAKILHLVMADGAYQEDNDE

KinomeScan kinase panel [12] = molecular target: T12, KinomeScan kinase panel (Homo sapiens, UniProt Q9P1W9); conditions: PIM2, 10 µM; read-out: score (%)
T12 construct: purchased DiscoveRx (KinomeScan)
T12 sequence (Q9P1W9 whole entry): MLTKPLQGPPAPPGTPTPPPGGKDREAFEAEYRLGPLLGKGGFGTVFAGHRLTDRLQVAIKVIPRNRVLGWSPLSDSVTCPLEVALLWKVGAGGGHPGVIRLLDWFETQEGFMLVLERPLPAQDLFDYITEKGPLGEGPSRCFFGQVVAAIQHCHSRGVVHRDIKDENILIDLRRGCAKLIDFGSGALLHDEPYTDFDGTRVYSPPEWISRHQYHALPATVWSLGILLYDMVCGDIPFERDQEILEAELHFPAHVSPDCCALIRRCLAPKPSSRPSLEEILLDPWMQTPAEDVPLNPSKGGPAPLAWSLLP

T7 sequence (P78368 whole entry): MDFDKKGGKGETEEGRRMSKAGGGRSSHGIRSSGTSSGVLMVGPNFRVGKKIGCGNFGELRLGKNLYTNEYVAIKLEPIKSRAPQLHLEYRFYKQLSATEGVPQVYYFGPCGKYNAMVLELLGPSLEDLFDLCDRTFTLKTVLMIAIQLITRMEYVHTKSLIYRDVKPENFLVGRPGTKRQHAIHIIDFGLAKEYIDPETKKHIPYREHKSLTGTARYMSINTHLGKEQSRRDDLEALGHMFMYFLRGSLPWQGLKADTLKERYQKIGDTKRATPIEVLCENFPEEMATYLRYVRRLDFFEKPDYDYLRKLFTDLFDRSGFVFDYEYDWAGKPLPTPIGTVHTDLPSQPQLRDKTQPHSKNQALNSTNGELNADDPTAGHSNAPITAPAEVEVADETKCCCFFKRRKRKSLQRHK
T9 sequence (Q13882 whole entry): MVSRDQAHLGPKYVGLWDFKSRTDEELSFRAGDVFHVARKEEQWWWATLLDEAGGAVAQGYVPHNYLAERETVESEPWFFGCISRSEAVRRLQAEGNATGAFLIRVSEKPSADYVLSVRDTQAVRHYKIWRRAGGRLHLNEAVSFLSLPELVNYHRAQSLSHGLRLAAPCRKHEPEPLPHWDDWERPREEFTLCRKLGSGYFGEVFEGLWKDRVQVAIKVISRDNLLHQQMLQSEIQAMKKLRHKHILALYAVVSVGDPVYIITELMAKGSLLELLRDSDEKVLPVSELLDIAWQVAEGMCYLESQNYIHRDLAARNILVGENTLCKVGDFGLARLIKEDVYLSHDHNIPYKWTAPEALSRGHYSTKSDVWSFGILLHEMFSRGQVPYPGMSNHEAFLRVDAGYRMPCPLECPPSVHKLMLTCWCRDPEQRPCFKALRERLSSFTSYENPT
T4 sequence (P42336 whole entry E545K): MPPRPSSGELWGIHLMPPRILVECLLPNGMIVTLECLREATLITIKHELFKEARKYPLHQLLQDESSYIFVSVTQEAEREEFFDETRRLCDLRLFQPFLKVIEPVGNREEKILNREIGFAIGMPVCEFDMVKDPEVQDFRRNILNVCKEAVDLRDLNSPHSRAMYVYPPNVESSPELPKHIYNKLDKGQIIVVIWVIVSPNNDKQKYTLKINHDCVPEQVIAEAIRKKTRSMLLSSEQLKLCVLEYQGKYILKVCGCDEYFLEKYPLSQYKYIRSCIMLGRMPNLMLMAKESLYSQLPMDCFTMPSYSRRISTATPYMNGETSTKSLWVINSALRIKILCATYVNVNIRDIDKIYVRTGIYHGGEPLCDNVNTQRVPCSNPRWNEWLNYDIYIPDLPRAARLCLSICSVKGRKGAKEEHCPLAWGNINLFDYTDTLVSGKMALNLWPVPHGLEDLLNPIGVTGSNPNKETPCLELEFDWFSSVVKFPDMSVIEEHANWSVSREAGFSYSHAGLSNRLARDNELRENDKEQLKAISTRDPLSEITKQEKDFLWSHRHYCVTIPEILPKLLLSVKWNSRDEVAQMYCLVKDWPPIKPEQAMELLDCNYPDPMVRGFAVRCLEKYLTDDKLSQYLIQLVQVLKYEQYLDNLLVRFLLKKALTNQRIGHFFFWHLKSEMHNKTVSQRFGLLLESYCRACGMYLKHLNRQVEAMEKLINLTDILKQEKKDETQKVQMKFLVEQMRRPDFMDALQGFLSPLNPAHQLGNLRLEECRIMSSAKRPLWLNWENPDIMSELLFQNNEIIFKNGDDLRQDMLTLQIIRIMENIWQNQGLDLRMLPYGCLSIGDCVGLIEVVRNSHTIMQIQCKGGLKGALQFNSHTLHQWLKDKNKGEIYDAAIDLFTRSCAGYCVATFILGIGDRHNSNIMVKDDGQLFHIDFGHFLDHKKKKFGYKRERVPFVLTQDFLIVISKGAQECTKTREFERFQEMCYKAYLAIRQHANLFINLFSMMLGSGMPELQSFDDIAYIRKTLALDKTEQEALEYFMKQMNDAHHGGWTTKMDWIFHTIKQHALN
T2 sequence (P08581 25-1390): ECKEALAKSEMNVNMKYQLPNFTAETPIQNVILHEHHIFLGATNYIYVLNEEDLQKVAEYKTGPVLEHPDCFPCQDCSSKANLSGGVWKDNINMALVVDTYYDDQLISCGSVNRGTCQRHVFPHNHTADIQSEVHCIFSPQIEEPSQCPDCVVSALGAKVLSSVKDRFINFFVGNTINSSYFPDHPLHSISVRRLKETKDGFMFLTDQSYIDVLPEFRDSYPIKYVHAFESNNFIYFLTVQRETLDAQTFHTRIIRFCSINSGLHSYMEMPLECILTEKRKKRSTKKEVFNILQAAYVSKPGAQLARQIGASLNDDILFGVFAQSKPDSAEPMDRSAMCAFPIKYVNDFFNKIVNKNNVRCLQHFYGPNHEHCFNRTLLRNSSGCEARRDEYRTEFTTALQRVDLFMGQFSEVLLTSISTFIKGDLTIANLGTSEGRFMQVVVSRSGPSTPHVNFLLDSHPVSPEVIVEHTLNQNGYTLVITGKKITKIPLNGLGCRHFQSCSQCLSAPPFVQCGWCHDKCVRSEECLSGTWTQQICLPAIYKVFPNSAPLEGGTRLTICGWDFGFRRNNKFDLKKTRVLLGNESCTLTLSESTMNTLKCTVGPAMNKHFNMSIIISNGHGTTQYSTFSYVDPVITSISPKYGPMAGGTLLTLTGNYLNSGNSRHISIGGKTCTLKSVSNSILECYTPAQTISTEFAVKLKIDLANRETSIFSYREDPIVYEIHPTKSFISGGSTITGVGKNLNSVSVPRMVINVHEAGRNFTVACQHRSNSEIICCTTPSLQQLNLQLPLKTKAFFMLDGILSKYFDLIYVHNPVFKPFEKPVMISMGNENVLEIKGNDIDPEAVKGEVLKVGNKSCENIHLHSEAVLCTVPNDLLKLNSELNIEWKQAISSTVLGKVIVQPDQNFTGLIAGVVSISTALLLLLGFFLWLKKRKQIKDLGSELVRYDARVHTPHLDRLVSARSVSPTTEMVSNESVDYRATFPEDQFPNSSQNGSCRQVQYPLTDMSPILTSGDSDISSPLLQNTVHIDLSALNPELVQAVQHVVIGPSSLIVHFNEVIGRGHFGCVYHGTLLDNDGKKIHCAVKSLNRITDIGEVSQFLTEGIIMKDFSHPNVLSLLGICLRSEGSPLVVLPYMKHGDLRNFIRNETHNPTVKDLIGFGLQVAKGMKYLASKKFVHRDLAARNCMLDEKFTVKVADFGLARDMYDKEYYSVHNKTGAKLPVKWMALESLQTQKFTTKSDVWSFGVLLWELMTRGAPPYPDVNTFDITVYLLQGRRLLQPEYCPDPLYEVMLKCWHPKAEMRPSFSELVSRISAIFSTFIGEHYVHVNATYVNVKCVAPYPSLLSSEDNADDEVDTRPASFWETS
T8 sequence (Q00526 whole entry): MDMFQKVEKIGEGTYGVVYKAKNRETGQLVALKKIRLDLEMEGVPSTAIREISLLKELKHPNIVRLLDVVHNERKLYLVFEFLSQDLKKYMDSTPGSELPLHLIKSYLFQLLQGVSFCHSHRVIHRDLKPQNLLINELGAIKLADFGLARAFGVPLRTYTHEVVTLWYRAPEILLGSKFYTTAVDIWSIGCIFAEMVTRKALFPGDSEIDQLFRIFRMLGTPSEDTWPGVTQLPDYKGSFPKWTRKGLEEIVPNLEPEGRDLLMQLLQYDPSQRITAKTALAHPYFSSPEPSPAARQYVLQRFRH
T6 sequence (P49137 whole entry): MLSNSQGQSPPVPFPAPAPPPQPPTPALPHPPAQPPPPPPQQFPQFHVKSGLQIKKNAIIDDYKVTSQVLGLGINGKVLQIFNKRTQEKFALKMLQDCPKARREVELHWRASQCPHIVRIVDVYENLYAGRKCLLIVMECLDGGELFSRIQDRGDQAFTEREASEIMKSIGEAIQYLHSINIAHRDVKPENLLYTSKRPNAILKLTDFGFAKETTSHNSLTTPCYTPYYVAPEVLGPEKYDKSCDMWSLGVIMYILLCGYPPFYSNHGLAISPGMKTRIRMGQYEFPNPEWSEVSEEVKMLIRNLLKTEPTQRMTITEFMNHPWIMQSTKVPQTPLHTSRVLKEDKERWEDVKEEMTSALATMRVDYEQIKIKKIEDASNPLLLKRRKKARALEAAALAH

score (%) (KinomeScan kinase panel [5]; SYK)	remaining binding at 10 µM (KinomeScan kinase panel [9]; PTK6, 10 µM)	Structure (SMILES)	remaining binding at 10 µM (KinomeScan kinase panel [1]; ABL1(M351T))	score (%) (KinomeScan kinase panel [2])	remaining binding at 10 µM (KinomeScan kinase panel [3])	remaining binding at 10 µM (KinomeScan kinase panel [4])	score (%) (KinomeScan kinase panel [5]; kinase SYK)	remaining binding at 10 µM (KinomeScan kinase panel [6])	score (%) (KinomeScan kinase panel [7])	score (%) (KinomeScan kinase panel [8])	remaining binding at 10 µM (KinomeScan kinase panel [9]; BRK, 10 µM)	remaining binding at 10 µM (KinomeScan kinase panel [10])	remaining binding at 10 µM (KinomeScan kinase panel [11])	remaining binding at 10 µM (KinomeScan kinase panel [12])	remaining binding at 10 µM (KinomeScan kinase panel [1]; ABL1(M351T)-phosphorylated)
–	–	CCN1CCN(Cc2ccc(NC(=O)c3ccc(C)c(NC(=O)c4cncc(-c5cccs5)c4)c3)cc2C(F)(F)F)CC1 [ALW-II-41-27]	0.55%	nb (Hits values higher than 30% were considered negative (no binding: nb))	7.4%	> 30%	4.2%	> 30%	20%	nb (Hits values higher than 30% were considered negative (no binding: nb))	8.2%	> 30%	> 30%	22%	–
1.8%	17%	CCN1CCN(Cc2ccc(NC(=O)c3ccc(C)c(/C=C/c4cnc5[nH]ccc5c4Cl)c3)cc2C(F)(F)F)CC1 [HG-6-63-01, (E)-3-(2-(4-chloro-1H-pyrrolo[2,3-b]pyridin-5-yl)vinyl)-N-(4-((4-ethylpiperazin-1-yl)methyl)-3-(trifluoromethyl)phenyl)-4-methylbenzamide]	0.1%	nb (Hits values higher than 30% were considered negative (no binding: nb))	> 30%	> 30%	–	> 30%	nb (Hits values higher than 30% were considered negative (no binding: nb))	nb (Hits values higher than 30% were considered negative (no binding: nb))	–	> 30%	> 30%	> 30%	–
–	–	CCN1CCN(Cc2ccc(NC(=O)c3ccc(C)c(C#Cc4cccnc4)c3)cc2C(F)(F)F)CC1 [XMD15-44]	–	nb (Hits values higher than 30% were considered negative (no binding: nb))	8.4%	85%	13%	> 30%	nb (Hits values higher than 30% were considered negative (no binding: nb))	24%	2.8%	> 30%	> 30%	100%	2.6%
